Data taken from patent US20260116868A1 (Arcus Biosciences, Inc., priority 2023, published 2026).

Biological target: T1, Cbl-b (Homo sapiens, UniProt Q13191)
T1 construct: biotin (biotinylated protein)
Assay: Cbl-b probe displacement HTRF binding assay
Conditions: 0.4 nM Cbl-b, 150 nM BODIPY probe
Outline: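 Binding IC50 from four-parameter fit of HTRF signal loss, normalised to DMSO (0%) and no-protein (100%) wells. Biotinylated Cbl-b 0.4 nM was preincubated 60 min with compound (20-point 1:2 dilution) before 15 min with 150 nM BODIPY probe; Tb-streptavidin detection.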

T1 sequence (Q13191 whole entry, species assumed): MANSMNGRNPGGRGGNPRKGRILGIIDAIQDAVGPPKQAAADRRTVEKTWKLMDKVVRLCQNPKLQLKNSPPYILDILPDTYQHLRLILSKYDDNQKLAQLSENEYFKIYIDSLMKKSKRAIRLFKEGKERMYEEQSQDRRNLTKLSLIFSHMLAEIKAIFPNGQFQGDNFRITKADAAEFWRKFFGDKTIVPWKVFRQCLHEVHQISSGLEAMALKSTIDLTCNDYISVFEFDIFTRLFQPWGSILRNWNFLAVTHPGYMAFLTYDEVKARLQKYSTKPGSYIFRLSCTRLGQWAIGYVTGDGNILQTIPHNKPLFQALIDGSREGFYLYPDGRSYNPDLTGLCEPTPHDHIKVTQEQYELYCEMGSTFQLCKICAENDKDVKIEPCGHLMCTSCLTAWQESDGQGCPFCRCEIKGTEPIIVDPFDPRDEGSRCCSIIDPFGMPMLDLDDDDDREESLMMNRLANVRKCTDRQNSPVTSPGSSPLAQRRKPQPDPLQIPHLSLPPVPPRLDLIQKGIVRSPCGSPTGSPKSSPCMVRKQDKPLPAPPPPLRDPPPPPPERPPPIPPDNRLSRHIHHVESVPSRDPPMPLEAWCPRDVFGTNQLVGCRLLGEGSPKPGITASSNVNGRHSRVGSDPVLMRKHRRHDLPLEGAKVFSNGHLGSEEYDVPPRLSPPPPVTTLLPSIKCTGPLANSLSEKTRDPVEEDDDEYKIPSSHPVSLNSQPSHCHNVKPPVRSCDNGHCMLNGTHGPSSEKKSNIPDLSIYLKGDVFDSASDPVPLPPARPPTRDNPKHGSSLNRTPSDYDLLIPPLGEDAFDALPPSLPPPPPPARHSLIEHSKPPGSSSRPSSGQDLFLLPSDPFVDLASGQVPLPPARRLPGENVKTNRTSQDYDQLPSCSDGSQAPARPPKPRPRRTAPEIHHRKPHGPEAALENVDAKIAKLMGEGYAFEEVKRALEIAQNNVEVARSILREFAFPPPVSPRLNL

SMILES | IC50 [nM]
CO[C@@H](C)CNCc1cc(C(=O)Nc2cc(-c3ccc(F)cc3C(=O)N3CC(F)(F)C3)cc(NC(C)C)n2)c(=O)n(C)c1 [Example 380] | < 100
CCOc1cc(-c2c(F)cc(Cl)cc2C(=O)N2CC(F)(F)C2)cc(NC(=O)c2cc(CNCC(C)C)cn(C3CC3)c2=O)n1 [Example 213] | < 100
CC(C)CNCc1cc(C(=O)Nc2cc(-c3ccc(C#N)cc3C(=O)N3CC(F)(F)C3)cc(OCC(F)F)n2)c(=O)n(C2CC2)c1 [Example 129, N-(4-{4-cyano-2-[(3,3-difluoro-1-azetidinyl)carbonyl]phenyl}-6-(2,2-difluoroethoxy)-2-pyridyl)-1-cyclopropyl-5-[(isobutylamino)methyl]-2-oxo-1,2-dihydronicotinamide] | < 100
CC(C)Oc1cc(-c2ccc(C#N)cc2C(=O)N2CC(F)(F)C2)cc(NC(=O)c2cc(CN[C@@H](C)C(C)C)cn(C)c2=O)n1 [Example 214] | < 100
CC(C)CNCc1cc(C(=O)Nc2cc(-c3ccc(Cl)cc3C(=O)N3CC(F)(F)C3)cc(C3CC3)n2)c(=O)n(C2CC2)c1 [Example 134, N-(4-{4-chloro-2-[(3,3-difluoro-1-azetidinyl)carbonyl]phenyl}-6-cyclopropyl-2-pyridyl)-1-cyclopropyl-5-[(isobutylamino)methyl]-2-oxo-1,2-dihydronicotinamide] | < 100
CO[C@@H](C)CNCc1cc(C(=O)Nc2cc(-c3ccc(Cl)cc3C(=O)N3CC[C@@H]3C)cc(C3CC3)n2)c(=O)n(C2CC2)c1 [Example 314] | < 100
CO[C@@H](C)[C@H](C)NCc1cc(C(=O)Nc2cc(-c3c(F)cc(C#N)cc3C(=O)N3CC(F)(F)C3)cc(C3CC3)n2)c(=O)n(C2CC2)c1 [Example 125, N-(4-{4-cyano-2-[(3,3-difluoro-1-azetidinyl)carbonyl]-6-fluorophenyl}-6-cyclopropyl-2-pyridyl)-1-cyclopropyl-5-{[(1S,2S)-2-methoxy-1-methylpropylamino]methyl}-2-oxo-1,2-dihydronicotinamide] | < 100
CCOc1cc(-c2ccc(OC(F)F)cc2C(=O)N2CC(F)C2)cc(NC(=O)c2cc(CNC[C@H](C)OC)cn(C3CC3)c2=O)n1 [Example 104, N-(4-{4-Difluoromethoxy-2-[(3-fluoro-1-azetidinyl)carbonyl]phenyl}-6-ethoxy-2-pyridyl)-5-{[(S)-2-methoxypropylamino]methyl}-1-cyclopropyl-2-oxo-1,2-dihydronicotinamide] | < 100
Cn1cc(CNC[C@@H]2CCCCO2)cc(C(=O)Nc2cc(-c3ccc(Cl)cc3C(=O)N3CC(F)(F)C3)cc(C3CC3)n2)c1=O [Example 108, N-[4-[4-chloro-2-(3,3-difluoroazetidine-1-carbonyl)phenyl]-6-cyclopropylpyridin-2-yl]-1-methyl-5-[[[(2S)-oxan-2-yl]methylamino]methyl]-2-oxopyridine-3-carboxamide] | < 100
CC(C)Oc1cc(-c2ccc(OC(F)F)cc2C(=O)N2CC(F)(F)C2)cc(NC(=O)c2cc(CN[C@@H](C)C3CCC3)cn(C3CC3)c2=O)n1 [Example 98] | < 100
Cn1cc(CNC[C@@H]2CCCCO2)cc(C(=O)Nc2cc(-c3ccc(OC(F)F)cc3C(=O)N3CC(F)(F)C3)cc(C3CC3)n2)c1=O [Example 111, N-[6-cyclopropyl-4-[2-(3,3-difluoroazetidine-1-carbonyl)-4-(difluoromethoxy)phenyl]pyridin-2-yl]-1-methyl-5-[[[(2S)-oxan-2-yl]methylamino]methyl]-2-oxopyridine-3-carboxamide] | < 100
O=C(Nc1cc(-c2ccc(OC(F)F)cc2C(=O)N2CC(F)(F)C2)cc(C2CC2)n1)c1cc(CNC[C@@H]2CCCCO2)cn(C2CC2)c1=O [Example 388] | < 100
COc1ccc(-c2cc(NC(=O)c3cc(CNCC(C)C)cn(C)c3=O)nc(C3CC3)c2)c(C(=O)N2CC(F)C2)c1 [Example 315] | < 100
COC(C)(C)CNCc1cc(C(=O)Nc2cc(-c3ccc(C#N)cc3C(=O)N3CC(F)(F)C3)cc(C3CC3)n2)c(=O)n(C2CC2)c1 [Example 401] | < 100
COc1ccc(-c2cc(NC(=O)c3cc(CNC[C@H](C)OC)cn(C4CC4)c3=O)nc(OCC(F)F)c2)c(C(=O)N2CC(F)(F)C2)c1 [Example 348] | < 100
CC(C)Oc1cc(-c2ccc(C#N)cc2C(=O)N2CC(F)(F)C2)cc(NC(=O)c2cc(CN[C@@H](C)C3CCC3)cn(C)c2=O)n1 [Example 100, N-[4-[4-cyano-2-(3,3-difluoroazetidine-1-carbonyl)phenyl]-6-propan-2-yloxypyridin-2-yl]-5-[[[(1S)-1-cyclobutylethyl]amino]methyl]-1-methyl-2-oxopyridine-3-carboxamide] | < 100
CCOc1cc(-c2ccc(Cl)cc2C(=O)N2CC(F)(F)C2)cc(NC(=O)c2cc(CNCC3CC3)cn(C3CC3)c2=O)n1 [Example 240] | < 100
CC(C)CNCc1cc(C(=O)Nc2cc(-c3ccc(C#N)cc3C(=O)N3CC(F)C3)cc(OC(C)C)n2)c(=O)n(C)c1 [Example 272] | < 100
CC(C)CNCc1cc(C(=O)Nc2cc(-c3ccc(C#N)cc3C(=O)N3CC(F)(F)C3)cc(OC(C)C)n2)c(=O)n(C2CC2)c1 [Example 97, N-(4-{4-cyano-2-[(3,3-difluoro-1-azetidinyl)carbonyl]phenyl}-6-isopropoxy-2-pyridyl)-1-cyclopropyl-5-[(isobutylamino)methyl]-2-oxo-1,2-dihydronicotinamide] | < 100
C[C@H](NCc1cc(C(=O)Nc2cc(-c3ccc(C#N)cc3C(=O)N3CC(F)(F)C3)cc(C3CC3)n2)c(=O)n(C2CC2)c1)C1CCCC1 [Example 358] | < 100
CC(C)Oc1cc(-c2c(F)cc(C#N)cc2C(=O)N2CC(F)(F)C2)cc(NC(=O)c2cc(CNC[C@@H]3CCCO3)cn(C)c2=O)n1 [Example 239] | < 100
O=C(Nc1cc(-c2ccc(OC(F)F)cc2C(=O)N2CC(F)(F)C2)cc(OCC(F)F)n1)c1cc(CNC[C@@H]2COCCO2)cn(C2CC2)c1=O [Example 165] | < 100

SMILES | IC50 [nM]
C[C@H](NCc1cc(C(=O)Nc2cc(-c3ccc(C#N)cc3C(=O)N3CC(F)(F)C3)cc(C3CC3)n2)c(=O)n(C2CC2)c1)C1CC1 [Example 365] | < 100
COCCNCc1cc(C(=O)Nc2cc(-c3ccc(Cl)cc3C(=O)N3CC(C#N)C3)cc(C3CC3)n2)c(=O)n(C2CC2)c1 [Example 303] | < 100
CC(C)CNCc1cc(C(=O)Nc2cc(-c3ccc(Cl)cc3C(=O)N3CC(F)C3)cc(OC(C)C)n2)c(=O)n(C2CC2)c1 [Example 251] | < 100
COc1ccc(-c2cc(NC(=O)c3cc(CN[C@@H](C)C4CCC4)cn(C4CC4)c3=O)nc(C3CC3)c2)c(C(=O)N2CC(F)(F)C2)c1 [Example 295] | < 100
CC(C)Oc1cc(-c2ccc(F)cc2C(=O)N2CC(F)(F)C2)cc(NC(=O)c2cc(CNCC3CC3)cn(C3CC3)c2=O)n1 [Example 139, N-(4-{2-[(3,3-difluoro-1-azetidinyl)carbonyl]-4-fluorophenyl}-6-isopropoxy-2-pyridyl)-1-cyclopropyl-5-{[(cyclopropylmethyl)amino]methyl}-2-oxo-1,2-dihydronicotinamide] | < 100
CC(C)CNCc1cc(C(=O)Nc2cc(-c3c(F)cc(Cl)cc3C(=O)N3CC(F)(F)C3)cc(NC(C)C)n2)c(=O)n(C2CC2)c1 [Example 201] | < 100
CC(C)Oc1cc(-c2ccc(C#N)cc2C(=O)N2CC(F)(F)C2)cc(NC(=O)c2cc(CN[C@@H](C)C(C)(C)F)cn(C3CC3)c2=O)n1 [Example 242] | < 100
CCNc1cc(-c2ccc(Cl)cc2C(=O)N2CC(F)(F)C2)cc(NC(=O)c2cc(CNCC(C)C)cn(C)c2=O)n1 [Example 184] | < 100
CO[C@@H](C)CNCc1cc(C(=O)Nc2cc(-c3ccc(OC(F)F)cc3C(=O)N3CC(F)(F)C3)cc(C)n2)c(=O)n(C2CC2)c1 [Example 338] | < 100
COc1ccc(-c2cc(NC(=O)c3cc(CN[C@@H](C)C4CCC4)cn(C)c3=O)nc(OC(C)C)c2)c(C(=O)N2CC(F)C2)c1 [Example 274] | < 100
CCOc1cc(-c2ccc(OC(F)F)cc2C(=O)N2CC(F)C2)cc(NC(=O)c2cc(CNCC(C)C)cn(C3CC3)c2=O)n1 [Example 268] | < 100
COCCNCc1cc(C(=O)Nc2cc(-c3ccc(C#N)cc3C(=O)N3CC(F)(F)C3)cc(NC(C)C)n2)c(=O)n(C2CC2)c1 [Example 342] | < 100
CC(C)CNCc1cc(C(=O)Nc2cc(-c3ccc(C#N)cc3C(=O)N3CC(F)(F)C3)cc(C3CC3)n2)c(=O)n(C2CC2)c1 [Example 356] | < 100
CO[C@@H](C)[C@H](C)NCc1cc(C(=O)Nc2cc(-c3c(F)cc(C#N)cc3C(=O)N3CC(F)(F)C3)cc(OC(C)C)n2)c(=O)n(C2CC2)c1 [Example 222] | < 100
CO[C@@H](C)CNCc1cc(C(=O)Nc2cc(-c3cc(F)c(Cl)cc3C(=O)N3CC(F)(F)C3)cc(C3CC3)n2)c(=O)n(C2CC2)c1 [Example 215] | < 100
COCCNCc1cc(C(=O)Nc2cc(-c3ccc(Cl)cc3C(=O)N3CCC3)cc(C3CC3)n2)c(=O)n(C2CC2)c1 [Example 298] | < 100
COc1ccc(-c2cc(NC(=O)c3cc(CNC[C@@H]4CCCO4)cn(C4CC4)c3=O)nc(OC(C)C)c2)c(C(=O)N2CC(F)(F)C2)c1 [Example 311] | < 100
CO[C@@H](C)CNCc1cc(C(=O)Nc2cc(-c3ccc(C#N)cc3C(=O)N3CC(F)(F)C3)cc(C3CC3)n2)c(=O)n(C)c1 [Example 178] | < 100
COc1ccc(-c2cc(NC(=O)c3cc(CNCC(C)C)cn(C4CC4)c3=O)nc(C3CC3)c2)c(C(=O)N2CC(F)(F)C2)c1 [Example 151, N-(6-Cyclopropyl-4-{2-[(3,3-difluoro-1-azetidinyl)carbonyl]-4-methoxyphenyl}-2-pyridyl)-1-cyclopropyl-5-[(isobutylamino)methyl]-2-oxo-1,2-dihydronicotinamide] | < 100
CO[C@@H](C)CNCc1cc(C(=O)Nc2cc(-c3ccc(Cl)cc3C(=O)N3CC(F)C3)cc(OC(C)C)n2)c(=O)n(C2CC2)c1 [Example 253] | < 100
CC(C)(F)CNCc1cc(C(=O)Nc2cc(-c3ccc(C#N)cc3C(=O)N3CC(F)(F)C3)cc(C3CC3)n2)c(=O)n(C2CC2)c1 [Example 244] | < 100
